This is an account of results in PubChem BioAssay AID330 (DTP/NCI, 2004).

The assay has as its system P388 leukemia ip, CD2F1 mice, survival T/C. In words: NCI In Vivo Anticancer Drug Screen. Data for tumor model P388 Leukemia (intraperitoneal) in CD2F1 (CDF1) mice. To be noted: endpoint: median survival time, higher = longer survival. Put shortly: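 Mice carrying the transplanted tumor received test compound or vehicle. Survival was recorded in each group, and the value is the treated-group measurement divided by that of the vehicle-treated control group.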

Where [1] appears, read: dose: 60.0 mg/kg/injection, schedule: Q01DX005 (ip), vehicle: Klucel (hydroxypropylcellulose) (HPC).
The mark [2] stands for this setting: dose: 120.0 mg/kg/injection, schedule: Q01DX005 (ip), vehicle: Klucel (hydroxypropylcellulose) (HPC).
The mark [3] stands for this setting: dose: 240.0 mg/kg/injection, schedule: Q01DX005 (ip), vehicle: Klucel (hydroxypropylcellulose) (HPC).
Where [4] appears, read: dose: 100.0 mg/kg/injection, schedule: Q04DX003 (ip), vehicle: saline with Tween-80.
The mark [5] stands for this setting: dose: 200.0 mg/kg/injection, schedule: Q04DX003 (ip), vehicle: saline with Tween-80.
Setting [6] is: dose: 400.0 mg/kg/injection, schedule: Q04DX003 (ip), vehicle: saline with Tween-80.
Setting [7] is: dose: 25.0 mg/kg/injection, schedule: Q01DX009 (ip), vehicle: saline.
[8] abbreviates: dose: 50.0 mg/kg/injection, schedule: Q01DX009 (ip), vehicle: saline.
Setting [9] is: dose: 100.0 mg/kg/injection, schedule: Q01DX009 (ip), vehicle: saline.
Setting [10] is: dose: 50.0 mg/kg/injection, schedule: Q01DX005 (ip), vehicle: Klucel (hydroxypropylcellulose) (HPC).
Where [11] appears, read: dose: 100.0 mg/kg/injection, schedule: Q01DX005 (ip), vehicle: Klucel (hydroxypropylcellulose) (HPC).
[12] abbreviates: dose: 200.0 mg/kg/injection, schedule: Q01DX005 (ip), vehicle: Klucel (hydroxypropylcellulose) (HPC).
Where [13] appears, read: dose: 60.0 mg/kg/injection, schedule: Q01DX005 (ip), vehicle: saline with Tween-80.
[14] abbreviates: dose: 120.0 mg/kg/injection, schedule: Q01DX005 (ip), vehicle: saline with Tween-80.
The mark [15] stands for this setting: dose: 240.0 mg/kg/injection, schedule: Q01DX005 (ip), vehicle: saline with Tween-80.
Setting [16] is: dose: 50.0 mg/kg/injection, schedule: Q01DX009 (ip), vehicle: Klucel (hydroxypropylcellulose) (HPC).
Where [17] appears, read: dose: 100.0 mg/kg/injection, schedule: Q01DX009 (ip), vehicle: Klucel (hydroxypropylcellulose) (HPC).
[18] abbreviates: dose: 200.0 mg/kg/injection, schedule: Q01DX009 (ip), vehicle: Klucel (hydroxypropylcellulose) (HPC).
Setting [19] is: dose: 200.0 mg/kg/injection, schedule: Q01DX009 (ip), vehicle: saline.
The mark [20] stands for this setting: dose: 50.0 mg/kg/injection, schedule: Q01DX005 (ip), vehicle: saline with Tween-80.
The mark [21] stands for this setting: dose: 100.0 mg/kg/injection, schedule: Q01DX005 (ip), vehicle: saline with Tween-80.
Setting [22] is: dose: 200.0 mg/kg/injection, schedule: Q01DX005 (ip), vehicle: saline with Tween-80.

Several values for one entry are separate records, joined by “and”; a condition that tells them apart may be missing. Equal entries are not always repeated. Inconclusive results and toxic doses are left out.

Regarding `COc1ccc(CCNCC(O)CO/N=C(\C)c2ccc(N(C)C)cc2)cc1OC` (stereo not drawn), the T/C is, setting by setting: under setting [1], 104 % of control; under setting [2], 101 % of control; under setting [3], 97 % of control.
Turning to `CCCNC(=NC)c1ccc(NC(=O)c2ccc(C(=O)Nc3ccc(C(=NC)NCCC)cc3)cc2)cc1`, the T/C is, setting by setting: (dose: 5.2 mg/kg/injection, schedule: Q01DX010 (ip), vehicle: saline) 109 % of control; (dose: 18.0 mg/kg/injection, schedule: Q01DX010 (ip), vehicle: saline) 118 % of control.
For `CCO/C=C1\SC(=S)N(c2ccc(C(=O)O)cc2)C1=O`, the T/C by setting is: (dose: 4.4 mg/kg/injection, schedule: Q01DX009 (ip), vehicle: saline with Tween-80) 104 % of control; (dose: 6.6 mg/kg/injection, schedule: Q01DX009 (ip), vehicle: saline with Tween-80) 109 % of control; (dose: 10.0 mg/kg/injection, schedule: Q01DX009 (ip), vehicle: saline with Tween-80) 109 % of control; (dose: 15.0 mg/kg/injection, schedule: Q01DX009 (ip), vehicle: saline with Tween-80) 109 % of control; under setting [4], 118 % of control; under setting [5], 113 % of control.
As to `CC1=NNB(O)c2c1sc(Br)c2Br`, the T/C reads like this: (dose: 100.0 mg/kg/injection, schedule: Q01DX001 (ip), vehicle: saline with Tween-80) 100 % of control; (dose: 200.0 mg/kg/injection, schedule: Q01DX001 (ip), vehicle: saline with Tween-80) 95 % of control.
`Cc1ccc(CC(=O)O)cc1C`: the T/C is 190 % of control under setting [4], 113 % of control under setting [5] and 113 % of control under setting [6].
For `Cc1cc(NC(=O)CCc2ccc(N3C(N)=NC(N)=NC3(C)C)cc2)ccc1S(=O)(=O)F`, the T/C runs as follows: (dose: 1.5 mg/kg/injection, schedule: Q01DX009 (ip), vehicle: saline sonified) 122 % of control; (dose: 25.0 mg/kg/injection, schedule: Q01DX009 (ip), vehicle: saline with Tween-80) 150 % of control; (dose: 100.0 mg/kg/injection, schedule: Q01DX009 (ip), vehicle: saline with Tween-80) 113 % of control.
As for `COc1cc2c(cc1OC)C(CN)C2` (stereo not drawn), the T/C runs as follows: under setting [7], 111 % of control; under setting [8], 109 % of control; under setting [9], 119 % of control.
For `Clc1nnn(-c2ccccc2)n1`, the T/C runs as follows: (dose: 62.5 mg/kg/injection, schedule: Q04DX002 (ip), vehicle: saline with Tween-80) 101 % of control; (dose: 125.0 mg/kg/injection, schedule: Q04DX002 (ip), vehicle: saline with Tween-80) 100 % of control.
As for `CC(=O)Oc1ccc(OC(C)=O)c2cc3c(cc12)C(=O)C(C)=C(C)C3=O`, the T/C by setting is: under setting [10], 89 % of control; under setting [11], 97 % of control; under setting [12], 111 % of control.
Turning to `CO[C@@]12[C@H](COC(N)=O)C3=C(C(=O)C(C)=C(N)C3=O)N1C[C@H]1[C@@H]2N1C(=O)[C@@H]1N2C(=O)[C@@H](NC(=O)Cc3ccccc3)[C@H]2SC1(C)C`, the T/C reads like this: (dose: 6.25 mg/kg/injection, schedule: Q01DX009 (ip), vehicle: saline) 116 % of control; (dose: 12.5 mg/kg/injection, schedule: Q01DX009 (ip), vehicle: saline) 155 % of control; under setting [7], 155 % of control; under setting [8], 165 % of control.
For the compound `O=S(=O)(Nc1ccccn1)c1ccc(NCc2c3ccccc3nc3cc(Cl)ccc23)cc1`, the T/C under setting [13] is 97 % of control, the T/C under setting [14] is 98 % of control and the T/C under setting [15] was 96 % of control.
As to `O=c1oc(-c2ccccc2)cc2ccccc12`, the T/C by setting is: under setting [10], 100 % of control and 105 % of control; under setting [11], 99 % of control and 109 % of control; under setting [12], 99 % of control and 98 % of control; (dose: 400.0 mg/kg/injection, schedule: Q01DX005 (ip), vehicle: Klucel (hydroxypropylcellulose) (HPC)) 100 % of control and 93 % of control.
Turning to `O=C1NC(=O)C(c2ccccc2)(c2ccccc2)N1S(=O)(=O)c1ccccc1`, the T/C is 100 % of control under setting [16], 108 % of control under setting [17] and 106 % of control under setting [18].
On to `C/C=C(\C)C(=O)OC1C2C(C)C(=O)OC2C(O)C(C)C2C=CC(=O)C21C` (stereo not drawn), for which the T/C reads like this: (dose: 2.5 mg/kg/injection, schedule: Q01DX009 (ip), vehicle: Klucel (hydroxypropylcellulose) (HPC)) 100 % of control; (dose: 5.0 mg/kg/injection, schedule: Q01DX009 (ip), vehicle: Klucel (hydroxypropylcellulose) (HPC)) 106 % of control; (dose: 10.0 mg/kg/injection, schedule: Q01DX009 (ip), vehicle: Klucel (hydroxypropylcellulose) (HPC)) 99 % of control; (dose: 20.0 mg/kg/injection, schedule: Q01DX009 (ip), vehicle: Klucel (hydroxypropylcellulose) (HPC)) 108 % of control.
For the compound `CCOC(=O)C(C=O)(NC(=O)c1ccccc1)OCC` (stereo not drawn), the T/C reads like this: under setting [4], 95 % of control; under setting [5], 90 % of control; under setting [6], 95 % of control.
Take `O=C(Nc1ccccc1)NC1CCCCCC1`: the T/C reads like this: under setting [8], 93 % of control; under setting [9], 98 % of control; under setting [19], 87 % of control.
On to `CC(N)C(=O)NC(CC(N)=O)C(=O)O` (stereo not drawn), for which the T/C (dose: 50.0 mg/kg/injection, schedule: Q01DX005 (ip), vehicle: saline) is 105 % of control; the T/C under setting [8] is 101 % of control; the T/C (dose: 100.0 mg/kg/injection, schedule: Q01DX005 (ip), vehicle: saline) is 110 % of control; the T/C under setting [9] was 94 % of control; the T/C (dose: 200.0 mg/kg/injection, schedule: Q01DX005 (ip), vehicle: saline) was 94 % of control; the T/C under setting [19] is 93 % of control.
For `O=C(Nc1ccc2oc3ccc(Cl)cc3c(=O)c2c1)c1ccc(Cl)cc1Cl`, the T/C reads like this: under setting [10], 97 % of control; under setting [11], 96 % of control; under setting [12], 96 % of control.
As to `CCCCC1C(C#N)C(=O)NC(=O)C1C#N` (stereo not drawn), the T/C runs as follows: under setting [16], 100 % of control; under setting [17], 95 % of control; under setting [18], 99 % of control.
In the case of `CCN(CC)[Si](C)(C)N(CC)CC`, the T/C is 100 % of control (dose: 30.0 mg/kg/injection, schedule: Q01DX005 (ip), vehicle: saline with Tween-80); 100 % of control under setting [13]; 104 % of control under setting [14].
With `COc1ccc(C2CC(C)(N3CCCC3)Oc3cc4c(cc32)OCO4)c(OC)c1` (stereo not drawn), the T/C under setting [20] was 99 % of control, the T/C under setting [21] was 96 % of control and the T/C under setting [22] was 86 % of control.
In the case of `CCCc1[nH]n(-c2ccccc2)c(=O)c1N=Nc1ccc(Cl)cc1`, the T/C under setting [8] is 96 % of control, the T/C under setting [9] is 100 % of control and the T/C under setting [19] was 101 % of control.
Turning to `CC(=O)N/N=C1/C=C2C/C(=N\NC(C)=O)C=C2C1`, the T/C runs as follows: under setting [20], 99 % of control; under setting [21], 95 % of control; under setting [22], 90 % of control.
Consider `COCC(=O)C(C(C)=O)C(c1ccc2c(c1)OCO2)C(C(C)=O)C(=O)COC` (stereo not drawn), for which the T/C runs as follows: under setting [4], 90 % of control; under setting [5], 90 % of control; under setting [6], 95 % of control.
With `CS(=O)(=O)C(Cl)(Cl)Cl`, the T/C runs as follows: under setting [13], 105 % of control; under setting [14], 107 % of control; under setting [15], 112 % of control.
Consider `O=CC(=O)Cc1ccccc1`, for which the T/C was 99 % of control and 98 % of control under setting [8]; 105 % of control and 98 % of control under setting [9]; 100 % of control and 92 % of control under setting [19]; 99 % of control and 100 % of control (dose: 400.0 mg/kg/injection, schedule: Q01DX009 (ip), vehicle: saline).
Regarding `CC(C)(C(=S)[S-])[P+](c1ccccc1)(c1ccccc1)c1ccccc1`, the T/C is 96 % of control under setting [1], 92 % of control under setting [2] and 88 % of control under setting [3].
